{"source": "paper PMC7066280", "about": "(Investigational New Drugs, 2019)", "key": {"[1]": {"set-up": "method as in Agios data on file", "details": "ref Agios data on file; cited from earlier work"}, "plasma 2-HG": {"system": "plasma 2-HG", "assay": "Plasma 2-HG pharmacodynamics in patients with IDH1-mutant tumors", "format": "in vivo, human", "experimental": "(§1) These samples were optional for any further patients enrolled in these cohorts. Further blood samples were collected from all patients up to 10 h postdose on cycle 1, day 15 and cycle 2, day 1. A subset of samples was also used for evaluation of plasma 4β-hydroxycholesterol (4β-OHC) and 4β-OHC:cholesterol ratios. Blood samples for assessment of 2-HG only were also collected at screening.\nAdditional predose samples were taken on cycle 1, day 8; cycle 1, day 15; cycle 3, day 1; and end of treatment.\n(§2) Plasma ivosidenib was measured using two validated liquid chromatography-tandem mass spectrometry (LC-MS/MS) methods. The lower limit of quantification (LLOQ) was 1.00 ng/mL (low-range assay) or 50.0 ng/mL (high-range assay). […] Plasma 2-HG concentrations were measured using a qualified LC-MS/MS method with an LLOQ of 30.0 ng/mL. Concentrations of 2-HG in tumor biopsy samples were quantified using qualified LC-MS/MS methods with an LLOQ of 7.5 μg/g for brain tumor homogenate, 100 ng/g for liver tumor homogenate (low-range assay), and 30 μg/g for liver tumor homogenate (high-range assay). Plasma 4β-OHC and cholesterol were measured using a validated LC-MS/MS method. The LLOQ was 5 ng/mL for 4β-OHC and 25 μg/mL for cholesterol in human plasma.\n(§3) PK parameters included area under the plasma concentration-time curve (AUC), maximum plasma concentration (Cmax), time to maximum plasma concentration (Tmax), terminal elimination half-life (t1/2), and apparent oral clearance at steady state (CLss/F). Accumulation ratio (Racc), based on Cmax and AUC, was also assessed during the dose escalation portion. PD (2-HG) parameters included baseline-effect value, area under the effect concentration-time curve (AUEC0-10h for the dose escalation portion, or AUEC0-8h for the dose escalation and expansion portions), percent change from baseline in AUEC (%BAUEC0-10h for the escalation portion, or %BAUEC0-8h for the dose escalation and expansion portions), average plasma concentration (Cavg), and percent inhibition for Cavg (%BCavg). For the dose escalation portion, the time-matched ratios of 4β-OHC to cholesterol were calculated."}, "[2]": {"system": "IDH1-mutant advanced solid tumors", "details": "Cmax,ss or AUCss vs best response, dose range tested", "description": "A total of 6 adverse event categories, based on both laboratory abnormalities and reported adverse events, were included in the exposure-response analyses. […] The efficacy endpoint of interest was best response. The exposure-response analyses used modeled nominal steady-state Cmax (Cmax,ss) or AUC (AUCss) as predictors for safety and efficacy variables in the two subgroups of tumor types described earlier."}, "[3]": {"assay": "Ivosidenib plasma PK after multiple oral doses (dose escalation)", "format": "in vivo, human", "details": "for Cmax / AUC(0-t) / AUC / Tmax: human, plasma, oral; for Cmax / AUC(0-t) / AUC: geometric mean; for AUC(0-t): read-out: AUC0-10hr; for AUC: read-out: AUC0-tau", "experimental": "In the dose escalation portion, patients with 1) glioma and 2) non-glioma solid tumors were enrolled into sequential cohorts using a standard 3 + 3 design. […] At least 3 patients in each cohort also received a single dose 3 days prior to the start of multiple dosing (i.e., day −3).\nas §1, §2, §3"}, "tumor 2-HG": {"system": "tumor 2-HG", "assay": "2-HG in paired tumor biopsy samples", "format": "in vivo", "details": "Homo sapiens; 500 mg QD multiple doses, cycle 3 day 1 and cycle 7 day 1, paired biopsies, 21 patients, all tumor types; read-out: 2-HG inhibition in tumors", "experimental": "Tumor biopsies were also collected for 2-HG assessment at screening, and at day 1 of cycle 3. Further biopsies were collected depending on the status of disease at cycle 7, day 1 or at any time that disease progression was suspected and/or at the end of treatment.\nas §2"}, "[4]": {"assay": "Effect of intrinsic and extrinsic factors on ivosidenib CLss/F", "format": "in vivo, human", "details": "500 mg QD, cycle 2 day 1", "experimental": "Continuous factors assessed included age, body weight, body mass index, baseline creatinine clearance (CLcr), baseline estimated glomerular filtration rate (eGFR), and markers of hepatic function (alanine aminotransferase [ALT], alkaline phosphatase [ALP], aspartate aminotransferase [AST], bilirubin, total protein, and albumin). CLcr was calculated using the Cockcroft and Gault equation and eGFR was calculated using the Modification of Diet in Renal Disease – National Kidney Disease Education Program equations [15]. Categorical factors assessed included sex, ethnicity, race, disease status, concomitant CYP3A4 inhibitor and inducer status, baseline hepatic and renal function category, and tumor type. Renal function was categorized as normal (CLcr ≥ 90 mL/min or eGFR ≥90 mL/min/1.73 m^2), mild impairment (CLcr ≥ 60–89 mL/min or eGFR ≥60–89 mL/min/1.73 m^2), moderate impairment (CLcr ≥ 30–59 mL/min or eGFR ≥30–59 mL/min/1.73 m^2), and severe impairment (CLcr ≥ 15–29 mL/min or eGFR ≥15–29 mL/min/1.73 m^2). Hepatic function category was based on National Cancer Institute (NCI) organ dysfunction working group (ODWG) criteria for hepatic dysfunction (0 = normal, 1 = mild, 2 = moderate, 3 = severe, 4 = liver transplant)."}, "[5]": {"details": "100 mg, non-glioma solid tumors, 100 mg BID, cycle 2 day 1"}, "[6]": {"details": "300 mg, glioma, 300 mg QD, cycle 2 day 1"}, "[7]": {"details": "300 mg, non-glioma solid tumors, 300 mg QD, cycle 2 day 1"}, "[8]": {"details": "400 mg, non-glioma solid tumors, 400 mg QD, cycle 2 day 1"}, "[9]": {"details": "500 mg, glioma, 500 mg QD, cycle 2 day 1"}, "[10]": {"details": "500 mg, non-glioma solid tumors, 500 mg QD, cycle 2 day 1"}, "[11]": {"details": "600 mg, glioma, 600 mg QD, cycle 2 day 1"}, "[12]": {"details": "800 mg, non-glioma solid tumors, 800 mg QD, cycle 2 day 1"}, "[13]": {"details": "900 mg, glioma, 900 mg QD, cycle 2 day 1"}, "[14]": {"details": "1200 mg, non-glioma solid tumors, 1,200 mg QD, cycle 2 day 1"}}, "note": "“Also recorded” adds a separate entry of the source. Where two headings read alike, the source gives them in different places."}
{"smiles": "N#Cc1ccnc(N2C(=O)CC[C@H]2C(=O)N(c2cncc(F)c2)[C@H](C(=O)NC2CC(F)(F)C2)c2ccccc2Cl)c1", "note": "[ivosidenib]", "values": [{"measurement": "FDA Biopharmaceutical Classification System class", "setting": "[1]", "value": "BCS Class II"}, {"measurement": "permeability (BCS)", "setting": "[1]", "value": "high permeability"}, {"measurement": "solubility (BCS)", "setting": "[1]", "value": "low solubility"}, {"measurement": "plasma 2-HG reduction", "setting": "plasma 2-HG; after multiple doses, patients with cholangiocarcinoma or chondrosarcoma", "value": "up to 98%"}, {"measurement": "plasma 2-HG inhibition compared with baseline", "setting": "plasma 2-HG; after one week of continuous dosing, cholangiocarcinoma and chondrosarcoma", "value": "up to 98%"}, {"measurement": "plasma 2-HG mean Cavg percent inhibition (BCavg%)", "setting": "plasma 2-HG; cholangiocarcinoma, 500 mg multiple dose, cycle 1 day 15", "value": 79, "unit": "%"}, {"measurement": "plasma 2-HG mean Cavg percent inhibition (BCavg%)", "setting": "plasma 2-HG; cholangiocarcinoma, 500 mg multiple dose, cycle 2 day 1", "value": 80, "unit": "%"}, {"measurement": "plasma 2-HG mean Cavg percent inhibition (BCavg%)", "setting": "plasma 2-HG; cholangiocarcinoma, single dose, 500 mg", "value": 46, "unit": "%"}, {"measurement": "plasma 2-HG mean Cavg percent inhibition (BCavg%)", "setting": "plasma 2-HG; chondrosarcoma, 500 mg multiple dose, cycle 1 day 15", "value": 54, "unit": "%"}, {"measurement": "plasma 2-HG mean Cavg percent inhibition (BCavg%)", "setting": "plasma 2-HG; chondrosarcoma, 500 mg multiple dose, cycle 2 day 1", "value": 59, "unit": "%"}, {"measurement": "plasma 2-HG mean Cavg percent inhibition (BCavg%)", "setting": "plasma 2-HG; chondrosarcoma, single dose, 500 mg", "value": 30, "unit": "%"}, {"measurement": "exposure-efficacy relationship", "setting": "[2]", "value": "flat"}, {"measurement": "accumulation at steady state", "setting": "[3]; day 15", "value": "approximately 1.5 fold"}, {"measurement": "Cmax", "setting": "[3]; [5]", "value": 3560, "unit": "ng/mL"}, {"measurement": "AUC(0-t)", "setting": "[3]; [5]", "value": 28600, "unit": "ng·h/mL"}, {"measurement": "AUC", "setting": "[3]; [5]", "value": 33600, "unit": "ng·h/mL"}, {"measurement": "Tmax", "setting": "[3]; 100 mg, non-glioma solid tumors, 100 mg BID, cycle 2 day 1, median, read-out: Tmax", "value": 2.5, "unit": "h"}, {"measurement": "Cmax", "setting": "[3]; [6]", "value": 3290, "unit": "ng/mL"}, {"measurement": "AUC(0-t)", "setting": "[3]; [6]", "value": 23700, "unit": "ng·h/mL"}, {"measurement": "AUC", "setting": "[3]; [6]", "value": 50800, "unit": "ng·h/mL"}, {"measurement": "Tmax", "setting": "[3]; 300 mg, glioma, 300 mg QD, cycle 2 day 1, median, read-out: Tmax", "value": 2.54, "unit": "h"}, {"measurement": "Cmax", "setting": "[3]; [7]", "value": 3160, "unit": "ng/mL"}, {"measurement": "AUC(0-t)", "setting": "[3]; [7]", "value": 23400, "unit": "ng·h/mL"}, {"measurement": "AUC", "setting": "[3]; [7]", "value": 53200, "unit": "ng·h/mL"}, {"measurement": "Tmax", "setting": "[3]; 300 mg, non-glioma solid tumors, 300 mg QD, cycle 2 day 1, median, read-out: Tmax", "value": 2.05, "unit": "h"}, {"measurement": "Cmax", "setting": "[3]; [8]", "value": 6800, "unit": "ng/mL"}, {"measurement": "AUC(0-t)", "setting": "[3]; [8]", "value": 51600, "unit": "ng·h/mL"}, {"measurement": "Tmax", "setting": "[3]; 400 mg, non-glioma solid tumors, 400 mg QD, cycle 2 day 1, median, read-out: Tmax", "value": 3.03, "unit": "h"}, {"measurement": "Cmax", "setting": "[3]; [9]", "value": 2900, "unit": "ng/mL"}, {"measurement": "AUC(0-t)", "setting": "[3]; [9]", "value": 20500, "unit": "ng·h/mL"}, {"measurement": "AUC", "setting": "[3]; [9]", "value": 44400, "unit": "ng·h/mL"}, {"measurement": "Tmax", "setting": "[3]; 500 mg, glioma, 500 mg QD, cycle 2 day 1, median, read-out: Tmax", "value": 2, "unit": "h"}, {"measurement": "Cmax", "setting": "[3]; [10]", "value": 4420, "unit": "ng/mL"}, {"measurement": "AUC(0-t)", "setting": "[3]; [10]", "value": 33900, "unit": "ng·h/mL"}, {"measurement": "AUC", "setting": "[3]; [10]", "value": 72800, "unit": "ng·h/mL"}, {"measurement": "Tmax", "setting": "[3]; 500 mg, non-glioma solid tumors, 500 mg QD, cycle 2 day 1, median, read-out: Tmax", "value": 2.96, "unit": "h"}, {"measurement": "Cmax", "setting": "[3]; [11]", "value": 3800, "unit": "ng/mL"}, {"measurement": "AUC(0-t)", "setting": "[3]; [11]", "value": 29100, "unit": "ng·h/mL"}, {"measurement": "AUC", "setting": "[3]; [11]", "value": 59800, "unit": "ng·h/mL"}, {"measurement": "Tmax", "setting": "[3]; 600 mg, glioma, 600 mg QD, cycle 2 day 1, median, read-out: Tmax", "value": 2, "unit": "h"}, {"measurement": "Cmax", "setting": "[3]; [12]", "value": 6050, "unit": "ng/mL"}, {"measurement": "AUC(0-t)", "setting": "[3]; [12]", "value": 44500, "unit": "ng·h/mL"}, {"measurement": "Tmax", "setting": "[3]; 800 mg, non-glioma solid tumors, 800 mg QD, cycle 2 day 1, median, read-out: Tmax", "value": 2, "unit": "h"}, {"measurement": "Cmax", "setting": "[3]; [13]", "value": 4100, "unit": "ng/mL"}, {"measurement": "AUC(0-t)", "setting": "[3]; [13]", "value": 31100, "unit": "ng·h/mL"}, {"measurement": "AUC", "setting": "[3]; [13]", "value": 64500, "unit": "ng·h/mL"}, {"measurement": "Tmax", "setting": "[3]; 900 mg, glioma, 900 mg QD, cycle 2 day 1, median, read-out: Tmax", "value": 2.52, "unit": "h"}, {"measurement": "Cmax", "setting": "[3]; [14]", "value": 7580, "unit": "ng/mL"}, {"measurement": "AUC(0-t)", "setting": "[3]; [14]", "value": 57700, "unit": "ng·h/mL"}, {"measurement": "AUC", "setting": "[3]; [14]", "value": 120000, "unit": "ng·h/mL"}, {"measurement": "Tmax", "setting": "[3]; 1200 mg, non-glioma solid tumors, 1,200 mg QD, cycle 2 day 1, median, read-out: Tmax", "value": 2.92, "unit": "h"}, {"measurement": "Tmax", "setting": "[3]; after multiple doses, glioma and non-glioma solid tumors, read-out: median Tmax", "value": "2 to 3", "unit": "h"}, {"measurement": "steady state reached by", "setting": "[3]; multiple dosing, cycle 1", "value": "≤ 15", "unit": "days"}, {"measurement": "steady state for ivosidenib plasma exposure and plasma 2-HG inhibition reached within", "setting": "[3]; of cycle 1", "value": "≤ 14", "unit": "days"}, {"measurement": "inhibition at 500 mg", "setting": "tumor 2-HG", "value": "≤ 100", "unit": "%"}, {"measurement": "effect of concomitant weak CYP3A4 inhibitors or inducers on CLss/F", "setting": "[4]", "value": "no apparent effect; also recorded: did not appear to affect"}, {"measurement": "effect of mild or moderate renal impairment or mild hepatic impairment on CLss/F", "setting": "[4]", "value": "no apparent effect"}]}
